Assay results as given in ChEMBL document CHEMBL4251613, “Synthesis and biological evaluation of diarylheptanoids as potential antioxidant and anti-inflammatory agents” (Eur J Med Chem, 2018).
Calls of active or inactive are those of the source. The rule behind the calls is not given here.

Assays:
[1] = test system: RAW264.7; experiment: Cytotoxicity against mouse RAW264.7 cells assessed as reduction in cell viability at 30 uM after 18 hrs by MTT assay; assay type: cell-based; conditions: raw264.7, 18 h
[2] = test system: RAW264.7; experiment: Anti-inflammatory activity in mouse RAW264.7 cells assessed as inhibition of LPS-induced ROS production at 30 uM measured after 4 hrs by H2DCFDA-AM probe based fluorescence assay; assay type: functional, cell-based
[3] = test system: RAW264.7; experiment: Anti-inflammatory activity in mouse RAW264.7 cells assessed as inhibition of LPS-induced IL-1beta mRNA level at 30 uM preincubated for 30 mins followed by LPS stimulation measured after 4 hrs by RT-PCR method relative to control; assay type: functional
[4] = test system: RAW264.7; experiment: Anti-inflammatory activity in mouse RAW264.7 cells assessed as inhibition of LPS-induced NO production at 30 uM preincubated for 30 mins followed by LPS stimulation measured after 4 hrs by Griess assay relative to control; assay type: functional
[5] = test system: RAW264.7; experiment: Cytotoxicity against mouse RAW264.7 cells assessed as reduction in cell viability at 30 to 50 uM after 18 hrs by MTT assay; assay type: cell-based; conditions: raw264.7, 18 h
[6] = test system: RAW264.7; experiment: Cytotoxicity against mouse RAW264.7 cells assessed as reduction in cell viability up to 30 uM after 18 hrs by MTT assay; assay type: cell-based; conditions: raw264.7, 18 h
[7] = test system: RAW264.7; experiment: Anti-inflammatory activity in mouse RAW264.7 cells assessed as inhibition of LPS-induced IL-6 mRNA level at 30 uM preincubated for 30 mins followed by LPS stimulation measured after 4 hrs by RT-PCR method relative to control; assay type: functional
[8] = test system: RAW264.7; experiment: Anti-inflammatory activity in mouse RAW264.7 cells assessed as inhibition of LPS-induced ROS production measured after 4 hrs by H2DCFDA-AM probe based fluorescence assay; assay type: functional, cell-based; conditions: for IC50: RAW264.7, 4 h
[9] = test system: RAW264.7; experiment: Anti-inflammatory activity in mouse RAW264.7 cells assessed as inhibition of LPS-induced ROS production at 1 to 10 uM measured after 4 hrs by H2DCFDA-AM probe based fluorescence assay; assay type: functional, cell-based
[10] = test system: RAW264.7; experiment: Cytotoxicity against mouse RAW264.7 cells assessed as reduction in cell viability at 30 uM after 1 hr by MTT assay; assay type: cell-based; conditions: raw264.7, 1 h
[11] = Cytotoxicity against mouse RAW264.7 cells assessed as cell viability at 30 uM after 18 hrs by MTT assay relative to control; assay type: cell-based; conditions: read-out: Activity
[12] = test system: RAW264.7; experiment: Cytotoxicity against mouse RAW264.7 cells assessed as reduction in cell viability after 18 hrs by MTT assay; assay type: cell-based; conditions: raw264.7, 18 h

IC50 [8] [µM] | SMILES | Activity [1] | inhibition [2] | inhibition at 30 µM [3] [%] | inhibition at 30 µM [4] [%] | Activity [5] | Activity [6] | inhibition at 30 µM [7] [%] | further results
 | COc1ccc(CCn2cc(CCc3ccc(O)cc3)nn2)cc1Br | Non-Toxic |  |  |  |  |  |  | 
 | N[C@H]1Cc2ccc(cc2)Oc2cc(ccc2O)CCCNC1=O | Non-Toxic | inactive |  |  |  |  |  | 
30 | COc1ccc2cc1Oc1ccc(cc1)C[C@H](N)C(=O)NCCC2 | Non-Toxic | Active | 30 to 50 | > 80 | Non-Toxic | Non-Toxic | > 60 | 
 | O=C1N[C@H]2Cc3ccc(cc3)Oc3cc(ccc3O)CCCN1C2=O | Non-Toxic |  |  |  |  |  |  | 
30 | Oc1ccc2cc1Oc1ccc(cc1)CC/C=C\C=C\C2 |  | Active |  | > 65 |  |  |  | inhibition [3]: Active; inhibition [9]: inactive; Activity [10]: Non-Toxic; inhibition [7]: Active; viability at 18 h, 30 µM [11]: < 60%; Activity [12]: Dose-dependent effect
30 to 50 | COc1ccc(CCCNC(=O)CCc2ccc(O)cc2)cc1Br | Non-Toxic | Active | 30 to 50 | > 80 | Toxic | Non-Toxic | > 60 | 
 | COc1ccc2cc1Oc1ccc(cc1)CCc1cn(nn1)CC2 | Non-Toxic |  |  |  |  |  |  | 
 | COc1ccc2cc1Oc1ccc(cc1)CC/C=C\C(O)CC2 (centres undefined) | Non-Toxic |  |  |  |  |  |  | 
 | Oc1ccc2cc1Oc1ccc(cc1)CCc1cn(nn1)CC2 | Non-Toxic |  |  |  |  |  |  | 
30 to 50 | Oc1ccc2cc1Oc1ccc(cc1)CC/C=C\C(O)CC2 (centres undefined) | Non-Toxic | Active | 30 to 50 | > 80 | Toxic | Non-Toxic | > 60 | 
 | COc1ccc2cc1Oc1ccc(cc1)CCC(=O)NCCC2 | Non-Toxic |  |  |  |  |  |  | 
30 to 50 | O=C1CCc2ccc(cc2)Oc2cc(ccc2O)CCCN1 | Non-Toxic | Active | 30 to 50 | 65 | Non-Toxic | Non-Toxic | > 60 | 
30 | COc1ccc(CCCNC(=O)[C@@H](N)Cc2ccc(O)cc2)cc1Br | Non-Toxic | Active | 30 to 50 | > 80 | Non-Toxic | Non-Toxic | > 60 | 
 | COc1ccc(CCC(O)/C=C\CCc2ccc(O)cc2)cc1Br (centres undefined) | Toxic | Active |  |  |  |  |  | Activity [10]: Non-Toxic
 | COc1ccc2cc1Oc1ccc(cc1)C[C@@H]1NC(=O)N(CCC2)C1=O | Non-Toxic |  |  |  |  |  |  | 
30 | Cc1c(C)c2c(c(C)c1O)CCC(C)(C(=O)O)O2 (centres undefined) [TROLOX] | Non-Toxic |  |  |  |  |  |  | inhibition [8]: Dose-dependent effect
